Patent US20260262643A1, “HERBICIDAL BENZOXAZINES” (FMC CORPORATION, priority 2022, published 2026)

Key:
[1] = test system: barnyardgrass; assay: Test C preemergence; format: in vivo, Echinochloa crusgalli; conditions: preemergence, 0 to 100 scale (0 no effect, 100 complete control)
Procedure, shortened: (§1)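 Soil-applied (pre) and foliar (post, 1–2 leaf, 2–10 cm) sprays; surfactant-containing non-phytotoxic solvent vehicle; loam/sand substrate. Readout: visual % control at 10 d, greenhouse, versus untreated.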

[2] = test system: blackgrass; assay: Test C preemergence; format: in vivo, Alopecurus myosuroides; conditions: preemergence, 0 to 100 scale (0 no effect, 100 complete control)
Procedure, shortened: as §1

[3] = test system: corn; assay: Test C preemergence; format: in vivo, Zea mays; conditions: preemergence, 0 to 100 scale (0 no effect, 100 complete control)
Procedure, shortened: as §1

[4] = test system: green foxtail; assay: Test C preemergence; format: in vivo, Setaria viridis; conditions: preemergence, 0 to 100 scale (0 no effect, 100 complete control)
Procedure, shortened: as §1

[5] = test system: kochia; assay: Test C preemergence; format: in vivo, Bassia scoparia; conditions: preemergence, 0 to 100 scale (0 no effect, 100 complete control)
Procedure, shortened: as §1

[6] = test system: oat, wild; assay: Test C preemergence; format: in vivo, Avena fatua; conditions: preemergence, 0 to 100 scale (0 no effect, 100 complete control)
Procedure, shortened: as §1

[7] = test system: pigweed, palmer; assay: Test C preemergence; format: in vivo, Amaranthus palmeri; conditions: preemergence, 0 to 100 scale (0 no effect, 100 complete control)
Procedure, shortened: as §1

[8] = test system: ragweed; assay: Test C preemergence; format: in vivo, Ambrosia artemisiifolia; conditions: preemergence, 0 to 100 scale (0 no effect, 100 complete control)
Procedure, shortened: as §1

[9] = test system: ryegrass, Italian; assay: Test C preemergence; format: in vivo, Lolium multiflorum; conditions: preemergence, 0 to 100 scale (0 no effect, 100 complete control)
Procedure, shortened: as §1

[10] = test system: soybean; assay: Test C preemergence; format: in vivo, Glycine max; conditions: preemergence, 0 to 100 scale (0 no effect, 100 complete control)
Procedure, shortened: as §1

[11] = test system: wheat; assay: Test C preemergence; format: in vivo, Triticum aestivum; conditions: preemergence, 0 to 100 scale (0 no effect, 100 complete control)
Procedure, shortened: as §1

[12] = test system: barnyardgrass; assay: Test C postemergence; format: in vivo, Echinochloa crusgalli; conditions: 10 days, 0 to 100 scale (0 no effect, 100 complete control)
Procedure, shortened: as §1

[13] = test system: blackgrass; assay: Test C postemergence; format: in vivo, Alopecurus myosuroides; conditions: 10 days, 0 to 100 scale (0 no effect, 100 complete control)
Procedure, shortened: as §1

[14] = test system: corn; assay: Test C postemergence; format: in vivo, Zea mays; conditions: 10 days, 0 to 100 scale (0 no effect, 100 complete control)
Procedure, shortened: as §1

[15] = test system: green foxtail; assay: Test C postemergence; format: in vivo, Setaria viridis; conditions: 10 days, 0 to 100 scale (0 no effect, 100 complete control)
Procedure, shortened: as §1

[16] = test system: kochia; assay: Test C postemergence; format: in vivo, Bassia scoparia; conditions: 10 days, 0 to 100 scale (0 no effect, 100 complete control)
Procedure, shortened: as §1

[17] = test system: oat, wild; assay: Test C postemergence; format: in vivo, Avena fatua; conditions: 10 days, 0 to 100 scale (0 no effect, 100 complete control)
Procedure, shortened: as §1

[18] = test system: pigweed, palmer; assay: Test C postemergence; format: in vivo, Amaranthus palmeri; conditions: 10 days, 0 to 100 scale (0 no effect, 100 complete control)
Procedure, shortened: as §1

[19] = test system: ragweed; assay: Test C postemergence; format: in vivo, Ambrosia artemisiifolia; conditions: 10 days, 0 to 100 scale (0 no effect, 100 complete control)
Procedure, shortened: as §1

[20] = test system: ryegrass, Italian; assay: Test C postemergence; format: in vivo, Lolium multiflorum; conditions: 10 days, 0 to 100 scale (0 no effect, 100 complete control)
Procedure, shortened: as §1

[21] = test system: soybean; assay: Test C postemergence; format: in vivo, Glycine max; conditions: 10 days, 0 to 100 scale (0 no effect, 100 complete control)
Procedure, shortened: as §1

[22] = test system: wheat; assay: Test C postemergence; format: in vivo, Triticum aestivum; conditions: 10 days, 0 to 100 scale (0 no effect, 100 complete control)
Procedure, shortened: as §1

[23] = test system: galium; assay: Test C postemergence; format: in vivo, Galium aparine; conditions: 10 days, 0 to 100 scale (0 no effect, 100 complete control)
Procedure, shortened: as §1

[24] = test system: horseweed; assay: Test C postemergence; format: in vivo, Erigeron canadensis; conditions: 10 days, 0 to 100 scale (0 no effect, 100 complete control)
Procedure, shortened: as §1

[25] = test system: barnyardgrass; assay: Test D flooded paddy test; format: in vivo, Echinochloa crus-galli; conditions: 250 g ai/ha, applied to paddy water, visual rating after 13 to 14 days, scale 0 to 100 (0 no effect, 100 complete control)
Procedure, shortened: (§2)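 Plants at the 2-leaf stage were grown in pots flooded to 3 cm, and compound was applied directly into the paddy water, with depth kept throughout. After 13–14 days in a greenhouse, injury was rated visually against untreated controls on a 0–100 scale (100 = complete control); a dash means not tested.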

[26] = test system: ducksalad; assay: Test D flooded paddy test; format: in vivo, Heteranthera limosa; conditions: 250 g ai/ha, applied to paddy water, visual rating after 13 to 14 days, scale 0 to 100 (0 no effect, 100 complete control)
Procedure, shortened: as §2

[27] = test system: rice; assay: Test D flooded paddy test; format: in vivo, Oryza sativa; conditions: 250 g ai/ha, applied to paddy water, visual rating after 13 to 14 days, scale 0 to 100 (0 no effect, 100 complete control)
Procedure, shortened: as §2

[28] = test system: sedge, umbrella; assay: Test D flooded paddy test; format: in vivo, Cyperus difformis; conditions: 250 g ai/ha, applied to paddy water, visual rating after 13 to 14 days, scale 0 to 100 (0 no effect, 100 complete control)
Procedure, shortened: as §2

Structure (SMILES): Cc1cccc2c1O[C@@H](C)CN2C(=O)c1cccc(-n2cnc(N)n2)c1 [Compound 308]
- Barnyardgrass plant response rating ([1]; 500 g ai/ha): 50
- Barnyardgrass plant response rating ([1]; Test C, 125 g ai/ha): 0
- Blackgrass plant response rating ([2]; 500 g ai/ha): 30
- Blackgrass plant response rating ([2]; Test C, 125 g ai/ha): 0
- Corn plant response rating ([3]; 500 g ai/ha): 0
- Corn plant response rating ([3]; Test C, 125 g ai/ha): 0
- Foxtail, Green plant response rating ([4]; 500 g ai/ha): 90
- Foxtail, Green plant response rating ([4]; Test C, 125 g ai/ha): 30
- Kochia plant response rating ([5]; 500 g ai/ha): 20
- Kochia plant response rating ([5]; Test C, 125 g ai/ha): 0
- Oat, Wild plant response rating ([6]; 500 g ai/ha): 70
- Oat, Wild plant response rating ([6]; Test C, 125 g ai/ha): 0
- Pigweed, Palmer plant response rating ([7]; 500 g ai/ha): 80
- Pigweed, Palmer plant response rating ([7]; Test C, 125 g ai/ha): 20
- Ragweed plant response rating ([8]; 500 g ai/ha): 20
- Ragweed plant response rating ([8]; Test C, 125 g ai/ha): 30
- Ryegrass, Italian plant response rating ([9]; 500 g ai/ha): 70
- Ryegrass, Italian plant response rating ([9]; Test C, 125 g ai/ha): 30
- Soybean plant response rating ([10]; 500 g ai/ha): 0
- Soybean plant response rating ([10]; Test C, 125 g ai/ha): 0
- Wheat plant response rating ([11]; 500 g ai/ha): 30
- Wheat plant response rating ([11]; Test C, 125 g ai/ha): 0
- Plant response rating, Barnyardgrass ([12]; 500 g ai/ha, postemergence): 30
- Plant response rating, Barnyardgrass ([12]; Postemergence, 125 g ai/ha): 10
- Plant response rating, Blackgrass ([13]; 500 g ai/ha, postemergence): 60
- Plant response rating, Blackgrass ([13]; Postemergence, 125 g ai/ha): 10
- Plant response rating, Corn ([14]; 500 g ai/ha, postemergence): 40
- Plant response rating, Corn ([14]; Postemergence, 125 g ai/ha): 10
- Plant response rating, Foxtail, Green ([15]; 500 g ai/ha, postemergence): 50
- Plant response rating, Foxtail, Green ([15]; Postemergence, 125 g ai/ha): 20
- Plant response rating, Kochia ([16]; 500 g ai/ha, postemergence): 20
- Plant response rating, Kochia ([16]; Postemergence, 125 g ai/ha): 20
- Plant response rating, Oat, Wild ([17]; 500 g ai/ha, postemergence): 0
- Plant response rating, Oat, Wild ([17]; Postemergence, 125 g ai/ha): 0
- Plant response rating, Pigweed, Palmer ([18]; 500 g ai/ha, postemergence): 50
- Plant response rating, Pigweed, Palmer ([18]; Postemergence, 125 g ai/ha): 10
- Plant response rating, Ragweed ([19]; 500 g ai/ha, postemergence): 30
- Plant response rating, Ragweed ([19]; Postemergence, 125 g ai/ha): 0
- Plant response rating, Ryegrass, Italian ([20]; 500 g ai/ha, postemergence): 20
- Plant response rating, Ryegrass, Italian ([20]; Postemergence, 125 g ai/ha): 0
- Plant response rating, Soybean ([21]; 500 g ai/ha, postemergence): 100
- Plant response rating, Soybean ([21]; Postemergence, 125 g ai/ha): 90
- Plant response rating, Wheat ([22]; 500 g ai/ha, postemergence): 20
- Plant response rating, Wheat ([22]; Postemergence, 125 g ai/ha): 10
- Plant response rating, Galium ([23]; 500 g ai/ha, postemergence): 80
- Plant response rating, Galium ([23]; Postemergence, 125 g ai/ha): 70
- Plant response rating, Horseweed ([24]; 500 g ai/ha, postemergence): 0
- Plant response rating, Horseweed ([24]; Postemergence, 125 g ai/ha): 20
- Plant response rating, Barnyardgrass (Flood) [25]: 0
- Plant response rating, Ducksalad (Flood) [26]: 0
- Plant response rating, Rice (Flood) [27]: 0
- Plant response rating, Sedge, Umbrella (Flood) [28]: 0
